From patent US20230144855A1, “METHODS AND COMPOSITIONS FOR INDUCING FETAL HEMOGLOBIN” (Flagship Pioneering Innovations VI, LLC, priority 2021, published 2023)
Entries after “also recorded” stand apart in the source; their conditions may differ.

How the values were obtained:
Format in all cases: cell-based, human
mPB CD34+ cells = assay: scRNA-seq of CD34+ cells treated with HbF inducers (trajectories, gene signatures); settings: for Pseudo-trajectory associated with high levels of HBG1/HBG2 expression: Leiden clustering / gene module analysis of HbF inducers
Procedure: To understand the mechanism/cell behavior driving fetal hemoglobin induction, a number of known HbF inducers were evaluated and their signature was elucidated by scRNA-seq. In brief, mPB CD34+ cells were thawed, cultured and treated with selected HbF inducers (Table 11) as described in Example 2 and subjected to single cell gene expression profiling (GEP) at 5 time points capturing the induction of erythroid differentiation from a hematopoietic stem cell progenitor. For sequencing, 10,000 cells (1000 cells/perturbation) were loaded into a single channel of a Chromium Next GEM Chip G and partitioned into droplets with gel beads using a Chromium controller per time point. After emulsion droplets were formed and collected, reverse transcription reactions were incubated at 53° C. for 45 min.
A dimensionality-reduced representation of the count matrix was embedded using UMAP, clustered using Leiden clustering and annotated using differential expression testing (Wilcoxon test) and comparisons to established marker genes. […] Based on these two trajectories, distinct signatures were generated for each transition and a list predictions were made towards each cell state.
Based on the unique/novel cell state (CD34+/CD41^Low+/CD235a+) induced by HU treatment of human hematopoietic stem cell progenitors Applicant postulated that this cell state was reminiscent/analogous to a stress erythropoiesis cell state previously defined in mice but not well characterized in human. […] To evaluate whether HU was inducing a stress erythropoiesis cells state and whether this cell state was responsive to glucocorticoids, the effect of dexamethasone (Dex) was evaluated in the context of HU treatment.
Perturbagen 1081 induced predicted gene signature associated with fetal hemoglobin induction. […] Adult human CD34+ progenitors were treated with Perturbagen 1081 and other known HbF inducers and subjected to scRNA-seq. […] Analysis of Perturbagen 1081 induced gene signature validated the fetal erythropoiesis signature predicted using a computational predictive models (FIG. 16C).

CD34+ HSPCs = assay: Flow cytometry of the CD34+/CD41Low+/CD235a+ cell state; settings: HU 50 uM, day 3 mPB CD34+
Procedure: Therefore, in this example, CD34+ HSPCs are cultured 4 days in stem cell maintenance media (days −4 through 0) then switched to the three phases of erythroid differentiation media. Phase 1, erythroid expansion media (days 0 through 6), Phase 2 erythroid differentiation media (days 7 through 10) and Phase 3 erythroid maturation media (days 10 through 18).

[1] = system: CD34+ hematopoietic stem and progenitor cells (HSPCs); assay: Flow cytometry assay of percentage of HbF expressing cells (F-cells) after in vitro erythroid differentiation
Procedure: (§1) Briefly, mobilized peripheral blood (mPB), or bone marrow (BM) derived CD34+ hematopoietic stem and progenitor cells (HSPCs) were thawed and cultured in Hematopoietic stem cell expansion media (Table 7) from Day −4 to Day 0 following by 3-stage in vitro erythroid differentiation (Table 8). Specifically, cells were cultured in erythroid expansion media (phase 1) from Day 0-6, followed by differentiation media (phase 2) between Day 7-10, and culminating with incubation in erythroid maturation media (phase 3) from Day 10-18. Perturbagens reconstituted in DMSO (or appropriate solvent) were added starting at day −2 (corresponding to a stage of CD34+ hematopoietic progenitors). […] As part of the analysis, the expansion (fold growth), viability, and erythroid maturation was measured throughout the course of differentiation. Early erythroid induction was determined by flow cytometry using a six-antibody panel (CD34, CD38, CD36, CD71, CD41, CD235a) (Table 9). Similarly, late erythroid maturation was determined by flow cytometry using a four-antibody panel (Table 10) (CD71, CD235a, CD233, CD49d) tracking increased CD233 expression, with a concomitant loss of CD49d expression, and a shift in CD71^Hi to CD71^low erythroid population (CD235a+) over 18 days (FIG. 2). […]

[2] = system: CD34+ hematopoietic stem and progenitor cells (HSPCs); assay: Percentage HbF by HPLC / ion-exchange chromatography in in vitro derived erythrocytes; settings: Day 14; HU 50 μM, Perturbagen 1081 0.1 μM; n=4-5
Procedure: as §1

Row | Compound | Pseudo-trajectory associated with high levels of HBG1/HBG2 expression (mPB CD34+ cells) | Expression of the glucocorticoid receptor (NR3C1) (mPB CD34+ cells; scRNA-seq of HU and HU+Dex conditions) | CD34+/CD41Low+/CD235a+ cell state (CD34+ HSPCs) | Number of F-cells with HU treatment ([1]; HU 50 uM on CD34+ HSPCs before erythroid differentiation) | HbF induced, HPLC analysis of in vitro derived erythrocytes [2] [%+4.78] | F-cell data, glucocorticoid agonist combined with HU (absolute change, fold change) ([1]; combination with HU)
1 | NC(=O)NO [HU, hydroxyurea] | HU-HbF trajectory | increases the expression of the glucocorticoid receptor (NR3C1); also recorded: induction of NR3C1 | a novel cell state defined by CD34+/CD41^Low+/CD235a+(FIG. 6A) was observed; also recorded: emergence of a cell population defined by CD34+CD41lowCD235a+ expression | increased number of F-cells | 17.16 | 
2 | Cc1ccc2c(NC[C@](O)(CC(C)(C)c3cc(F)cc4c3OCC4)C(F)(F)F)cccc2n1 [Mapracorat] |  |  |  |  |  | synergy with HU
3 | Nc1cccc2c1C(=O)N(C1CCC(=O)NC1=O)C2=O (stereo not shown) [Pomalidomine] | canonical-HbF trajectory |  |  |  |  | 
